Read-outs that look alike come from different tables or passages of the source.
Key:
Plasmodium falciparum = tested on: Plasmodium falciparum; parameters: method as in earlier work; conditions: in vitro, ref 27 (Nogueira et al.); cited from earlier work
Leishmania donovani = tested on: Leishmania donovani; parameters: method as in earlier work; conditions: in vitro, ref 27 (Nogueira et al.); cited from earlier work
L6 cells = tested on: L6 cells; parameters: method as in earlier work; conditions: in comparison with L6 cells; ref 27 (Nogueira et al.); cited from earlier work
LmPTR1 = molecular target: T1, LmPTR1 (Leishmania major, UniProt Q01782); experiment: LmPTR1 enzyme inhibition assay (spectrophotometric, NADPH oxidation at 340 nm); assay type: biochemical; conditions: for IC50: NADPH 250 µM, pH 6.0, 30 °C, 0.1–128 µM
T1 construct: made in house
T1 sequence (Q01782 1-288): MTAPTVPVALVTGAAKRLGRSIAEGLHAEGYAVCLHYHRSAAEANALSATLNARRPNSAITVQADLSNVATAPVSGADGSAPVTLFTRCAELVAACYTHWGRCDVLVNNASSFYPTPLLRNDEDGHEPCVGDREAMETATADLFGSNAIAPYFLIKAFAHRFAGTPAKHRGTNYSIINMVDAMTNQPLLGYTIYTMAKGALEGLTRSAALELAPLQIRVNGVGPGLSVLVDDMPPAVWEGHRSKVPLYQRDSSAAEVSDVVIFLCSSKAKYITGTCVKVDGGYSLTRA
Description: The selected synthetic diterpene esters 135, 301, 302, 301a, and 302a were tested in vitro to experimentally determine their abilities to inhibit the enzymatic activity of LmPTR1 as an extension of the results provided by the in silico screening. […] The IC50 was then calculated for the tested diterpenes, and these values were used to calculate the apparent inhibitory constant (Ki^app) (Table 3) using the Cheng–Prusoff equation, assuming reversible competitive inhibition and 1:1 stoichiometry. PMA, a known PTR1 inhibitor, was used as a positive control. […] Therefore, a reasonable inference based on this small set of compounds is that the presence of a p-hydroxyl group at the phenylpropanoid moiety might favor inhibitory activity, whereas a 9β-hydroxyl group at the diterpene moiety has a negative influence on LmPTR1 inhibition.
Recombinant LmPTR1 enzyme was obtained, purified, and kinetically characterized, as reported previously. The in vitro assessment of selected diterpenes (i.e., 135, 301, 302, 301a, and 302a) for LmPTR1 inhibitory activity was performed through the spectrophotometric monitoring of the enzymatic activity under balanced conditions: LmPTR1 (30 µg), 7,8-dihydro-L-biopterin (DHB, 20 µM), sodium citrate buffer (20 mM, pH 6.0), 30 °C, and a final assay volume of 600 µL. Each reaction was started by the addition of 250 µM NADPH. Absorbance was monitored at 340 nm (i.e., oxidation of NADPH to NADP+) for 240 s, and the resulting profile was used to measure the initial reaction rate (IRR) through the respective slope by linear regression. All recordings were performed in triplicate. PMA was used as the positive control. The resulting IRR values were used to calculate the % inhibition, as 100 − (Ri/Rc × 100), where Ri is the IRR in the presence of the inhibitor and Rc is the IRR in the absence of inhibitors (1% DMSO v/v final concentration). The % inhibition for at least five concentrations (range: 0.1–128 µM) for each test compound (diterpenes and PMA) were calculated, and concentration-response curves (% inhibition vs. Log[inhibitor]) were obtained by non-linear regression to determine the IC50 using GraphPad Prism 5.0 (GraphPad, San Diego, CA, USA). Finally, Ki^app values were calculated using the Cheng–Prusoff equation for competitive inhibition, assuming a 1:1 stoichiometry and that the inhibitor-binding reactions are reversible: Ki^app = IC50/(1 + [S]/Km), where [S] is the substrate (DHB) concentration and Km is the Michaelis constant. The substrate Km was calculated during the kinetic characterization of purified, recombinant LmPTR1.

[1] = recombinant LmPTR1, DHB 20 µM, read-out: IC50

Compound | Ki (LmPTR1; read-out: Ki^app) [µM] | IC50 (LmPTR1; [1]) [µM] | other results
C=C1C[C@@]23CC[C@@H]4[C@](C)(CO)[C@H](O)CC[C@@]4(C)[C@@H]2CC[C@@H]1C3 (single isomer, unassigned; ent-3) [ent-3-α-hydroxy-kaur-16-en-18-ol] |  |  | IC50 (Plasmodium falciparum): 3.5 µM; IC50 (Leishmania donovani): 2.5 µM; Selectivity index, SI (L6 cells): > 10
CCc1nc(N)nc(N)c1-c1ccc(Cl)cc1 [PMA, pyrimethamine, reference compound] |  |  | Ki (LmPTR1): 0.24 µM; IC50 (LmPTR1; IC50, recombinant LmPTR1, DHB 20 µM): 1.11 µM
C=C1C[C@@]23CC[C@@H]4[C@](C)(C(=O)O[C@H]5C=C(C)[C@@H](O)C[C@@H]5C(C)C)CCC[C@@]4(C)C2CC[C@@H]1C3 (stereo partly drawn) [compound 135, 2β-hydroxy-menth-6-en-5β-yl ent-kaurenoate] | 1.88 | 8.6 | 
C=C1C[C@@]23CCC4[C@](C)(C(=O)O)[C@H](OC(=O)/C=C/c5ccccc5)CC[C@@]4(C)[C@]2(O)CC[C@@H]1C3 (stereo partly drawn) [compound 301, 3α-Cinnamoyloxy-9β-hydroxy-ent-kaur-16-en-19-oic Acid] | 4.64 | 21.2 | 
C=C1C[C@@]23CCC4[C@](C)(C(=O)O)[C@H](OC(=O)/C=C/c5ccccc5)CC[C@@]4(C)[C@@H]2CC[C@@H]1C3 (stereo partly drawn) [compound 302, 3α-cinnamoyloxy-ent-kaur-16-en-19-oic acid] | 2.1 | 9.6 | 

From article PMC8196580, “Identification of Kaurane-Type Diterpenes as Inhibitors of Leishmania Pteridine Reductase I” (Molecules, 2021)
